In article PMC4532999 (Scientific Reports, 2015):
Positions of bridges follow the written chain, without caps; N, C: chain ends. Non-standard residues stand in square brackets, D forms with d. Residues, ends and D or L forms follow the SMILES beside them. No end group written: not given here. pY = N[C@@H](Cc1ccc(OP(=O)(O)O)cc1)C(=O)O

Assays:
[1] = biological target: Abl kinase (Homo sapiens, UniProt P00519); assay: BacKin assay, inhibition of phosphorylation of abltide displayed on E. coli; format: biochemical; details: 32 μM peptide, Abl kinase 0.2 U/mL, 37 °C, 30 min
[2] = system: HeLa cells
Procedure: Since BCR-ABL localizes predominantly in the cytoplasm, it is important to evaluate whether the designed peptides can be internalized into cells.
Human cervical cancer cells (HeLa) were seeded in 175-cm^2 tissue culture flasks (Falcon), in Dulbecco’s Modified Eagle’s Medium (DMEM) supplemented with 10% fetal bovine serum, 100 U/mL penicillin and […] streptomycin, until 80% confluent.
Cytotoxicity of the MTAbl peptides towards HeLa cells was evaluated before the cell internalization assay. The mammalian cell cytotoxicity assay was conducted using a method described earlier. HeLa cells were seeded the day before the assay in 96-well tissue culture-treated plates (2.5 × 10^3 cells/well). […] Peptide solutions were diluted 10-fold with serum-free medium and incubated with cells in triplicates for 2 h. […] Following incubation the peptide solutions were removed and aliquots of 10 μL of 0.02% (w/v) sterile resazurin (resazurin sodium salt, Sigma) were added to each well containing 100 μL of fresh medium. […] The absorbance of the plates was measured on a plate reader at 540 and 620 nm.

[3] = Serum stability assay; details: 100% human serum, 37 °C
Procedure: All peptides were tested at a final concentration of 30 μM in 100% human serum. […] Reactions were stopped at the stipulated times and the serum proteins in each sample were denatured and precipitated, followed by centrifugation at 17,000 g for 10 min to separate the serum proteins from peptide samples. […] The elution time for each peptide was determined by the PBS control from 0 time point. The percentage of peptide remaining at each time point was calculated using the height of the serum-treated peptide peak from time 0 as 100% recovery.

Abl kinase, sequence (P00519 whole entry): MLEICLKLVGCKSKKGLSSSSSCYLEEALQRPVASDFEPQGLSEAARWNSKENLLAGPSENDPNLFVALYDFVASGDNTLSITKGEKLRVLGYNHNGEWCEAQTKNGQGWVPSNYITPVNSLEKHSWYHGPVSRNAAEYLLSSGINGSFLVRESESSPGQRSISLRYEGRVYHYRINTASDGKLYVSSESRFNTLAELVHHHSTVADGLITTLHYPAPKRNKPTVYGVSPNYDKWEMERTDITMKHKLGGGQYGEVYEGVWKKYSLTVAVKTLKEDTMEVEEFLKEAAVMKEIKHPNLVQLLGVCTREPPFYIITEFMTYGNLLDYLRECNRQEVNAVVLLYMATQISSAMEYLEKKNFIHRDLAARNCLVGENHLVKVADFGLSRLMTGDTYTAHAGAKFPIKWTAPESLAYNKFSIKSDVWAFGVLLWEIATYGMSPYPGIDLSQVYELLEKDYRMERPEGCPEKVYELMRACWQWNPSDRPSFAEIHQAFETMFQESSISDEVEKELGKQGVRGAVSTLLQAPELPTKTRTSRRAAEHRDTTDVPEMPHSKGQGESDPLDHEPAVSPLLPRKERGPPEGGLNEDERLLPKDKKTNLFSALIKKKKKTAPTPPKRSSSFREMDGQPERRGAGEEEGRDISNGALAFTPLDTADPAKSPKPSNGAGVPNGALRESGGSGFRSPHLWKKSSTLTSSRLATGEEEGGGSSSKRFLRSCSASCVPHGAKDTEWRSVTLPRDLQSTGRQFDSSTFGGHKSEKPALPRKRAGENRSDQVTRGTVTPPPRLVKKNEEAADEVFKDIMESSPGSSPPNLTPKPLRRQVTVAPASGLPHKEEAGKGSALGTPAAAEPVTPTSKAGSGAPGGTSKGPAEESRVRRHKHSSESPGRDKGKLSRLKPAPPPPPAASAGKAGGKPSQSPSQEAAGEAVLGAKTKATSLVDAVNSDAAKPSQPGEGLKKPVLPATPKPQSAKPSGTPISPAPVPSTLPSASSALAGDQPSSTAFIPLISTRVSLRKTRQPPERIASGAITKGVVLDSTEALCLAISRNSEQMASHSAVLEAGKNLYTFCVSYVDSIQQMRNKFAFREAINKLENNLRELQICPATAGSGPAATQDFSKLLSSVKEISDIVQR

| Compound | percentage of Abl kinase inhibition [1] | further results |
| --- | --- | --- |
| CC[C@H](C)[C@@H]1NC(=O)[C@H](C)NC(=O)[C@H](CCC(=O)O)NC(=O)CNC(=O)[C@@H]2CSSC[C@@H]3NC(=O)[C@H](CC(=O)O)NC(=O)[C@H](CO)NC(=O)[C@H](CC(=O)O)NC(=O)[C@H](CCCNC(=N)N)NC(=O)[C@H](CCCNC(=N)N)NC(=O)[C@@H]4CSSC[C@H](NC(=O)[C@H]([C@@H](C)CC)NC(=O)[C@H](CSSC[C@H](NC(=O)[C@H](CCCCN)NC(=O)[C@H](C)NC(=O)[C@H](Cc5ccccc5)NC(=O)[C@@H]5CCCN5C(=O)[C@H](C)NC(=O)[C@H](C)NC(=O)[C@H](Cc5ccc(O)cc5)NC1=O)C(=O)N1CCC[C@H]1C(=O)N[C@@H](CCCCN)C(=O)N[C@@H]([C@@H](C)CC)C(=O)N[C@@H](CC(C)C)C(=O)N[C@@H](CCCCN)C(=O)N[C@@H](CCCCN)C(=O)N4)NC(=O)[C@H](C)NC(=O)CNC(=O)[C@@H]1CCCN1C3=O)C(=O)N[C@@H](CCCNC(=N)N)C(=O)NCC(=O)N[C@@H](CC(N)=O)C(=O)NCC(=O)N[C@@H](Cc1ccc(O)cc1)C(=O)N2 [MTAbl05] (cyclo(AAPFAKCPKILKKCRRDSDCPGACICRGNGYCGEAIY); disulfide 7-24, 14-26, 20-32) | ~ 90% |  |
| CC[C@H](C)[C@@H]1NC(=O)[C@H](C)NC(=O)[C@H](CCC(=O)O)NC(=O)[C@@H]2CSSC[C@@H]3NC(=O)[C@H](CC(=O)O)NC(=O)[C@H](CO)NC(=O)[C@H](CC(=O)O)NC(=O)[C@H](CCCNC(=N)N)NC(=O)[C@H](CCCNC(=N)N)NC(=O)[C@@H]4CSSC[C@H](NC(=O)[C@H]([C@@H](C)CC)NC(=O)[C@H](CSSC[C@H](NC(=O)CNC(=O)[C@H](C)NC(=O)[C@H](Cc5ccccc5)NC(=O)[C@@H]5CCCN5C(=O)[C@H](C)NC(=O)[C@H](C)NC(=O)[C@H](Cc5ccc(O)cc5)NC1=O)C(=O)N1CCC[C@H]1C(=O)N[C@@H](CCCCN)C(=O)N[C@@H]([C@@H](C)CC)C(=O)N[C@@H](CC(C)C)C(=O)N[C@@H](CCCCN)C(=O)N[C@@H](CCCCN)C(=O)N4)NC(=O)[C@H](C)NC(=O)CNC(=O)[C@@H]1CCCN1C3=O)C(=O)N[C@@H](CCCNC(=N)N)C(=O)NCC(=O)N[C@@H](CC(N)=O)C(=O)NCC(=O)N[C@@H](Cc1ccc(O)cc1)C(=O)N2 [MTAbl03] (cyclo(AAPFAGCPKILKKCRRDSDCPGACICRGNGYCEAIY); disulfide 7-24, 14-26, 20-32) | 50% |  |
| CC[C@H](C)[C@@H]1NC(=O)[C@H](C)NC(=O)[C@H](CCC(=O)O)NC(=O)CNC(=O)[C@@H]2CSSC[C@@H]3NC(=O)[C@H](CC(=O)O)NC(=O)[C@H](CO)NC(=O)[C@H](CC(=O)O)NC(=O)[C@H](CCCNC(=N)N)NC(=O)[C@H](CCCNC(=N)N)NC(=O)[C@@H]4CSSC[C@H](NC(=O)[C@H]([C@@H](C)CC)NC(=O)[C@H](CSSC[C@H](NC(=O)[C@H](CCCNC(=N)N)NC(=O)[C@H](CCCNC(=N)N)NC(=O)[C@H](CCCNC(=N)N)NC(=O)[C@H](C)NC(=O)[C@H](Cc5ccccc5)NC(=O)[C@@H]5CCCN5C(=O)[C@H](C)NC(=O)[C@H](C)NC(=O)[C@H](Cc5ccc(O)cc5)NC1=O)C(=O)N1CCC[C@H]1C(=O)N[C@@H](CCCNC(=N)N)C(=O)N[C@@H]([C@@H](C)CC)C(=O)N[C@@H](CC(C)C)C(=O)N[C@@H](CCCNC(=N)N)C(=O)N[C@@H](CCCCN)C(=O)N4)NC(=O)[C@H](C)NC(=O)CNC(=O)[C@@H]1CCCN1C3=O)C(=O)N[C@@H](CCCNC(=N)N)C(=O)NCC(=O)N[C@@H](CC(N)=O)C(=O)NCC(=O)N[C@@H](Cc1ccc(O)cc1)C(=O)N2 [MTAbl15] (cyclo(AAPFARRRCPRILRKCRRDSDCPGACICRGNGYCGEAIY); disulfide 9-26, 16-28, 22-34) |  | concentration up to which no cytotoxicity towards HeLa cells [2]: > 64 µM |
| CC[C@H](C)[C@@H]1NC(=O)[C@H](C)NC(=O)[C@H](CCC(=O)O)NC(=O)[C@@H]2CSSC[C@@H]3NC(=O)[C@H](CC(=O)O)NC(=O)[C@H](CO)NC(=O)[C@H](CC(=O)O)NC(=O)[C@H](CCCNC(=N)N)NC(=O)[C@H](CCCNC(=N)N)NC(=O)[C@@H]4CSSC[C@H](NC(=O)[C@H]([C@@H](C)CC)NC(=O)[C@H](CSSC[C@H](NC(=O)[C@H](CCCCN)NC(=O)[C@H](C)NC(=O)[C@H](Cc5ccccc5)NC(=O)[C@@H]5CCCN5C(=O)[C@H](C)NC(=O)[C@H](C)NC(=O)[C@H](Cc5ccc(O)cc5)NC1=O)C(=O)N1CCC[C@H]1C(=O)N[C@@H](CCCCN)C(=O)N[C@@H]([C@@H](C)CC)C(=O)N[C@@H](CC(C)C)C(=O)N[C@@H](CCCCN)C(=O)N[C@@H](CCCCN)C(=O)N4)NC(=O)[C@H](C)NC(=O)CNC(=O)[C@@H]1CCCN1C3=O)C(=O)N[C@@H](CCCNC(=N)N)C(=O)NCC(=O)N[C@@H](CC(N)=O)C(=O)NCC(=O)N[C@@H](Cc1ccc(O)cc1)C(=O)N2 [MTAbl04] (cyclo(AAPFAKCPKILKKCRRDSDCPGACICRGNGYCEAIY); disulfide 7-24, 14-26, 20-32) | ~ 50% |  |
| CC[C@H](C)[C@@H]1NC(=O)[C@H](C)NC(=O)[C@H](CCC(=O)O)NC(=O)CNC(=O)[C@@H]2CSSC[C@@H]3NC(=O)[C@H](CC(=O)O)NC(=O)[C@H](CO)NC(=O)[C@H](CC(=O)O)NC(=O)[C@H](CCCNC(=N)N)NC(=O)[C@H](CCCNC(=N)N)NC(=O)[C@@H]4CSSC[C@H](NC(=O)[C@H]([C@@H](C)CC)NC(=O)[C@H](CSSC[C@H](NC(=O)CNC(=O)[C@H](C)NC(=O)[C@H](Cc5ccccc5)NC(=O)[C@@H]5CCCN5C(=O)[C@H](C)NC(=O)[C@H](C)NC(=O)[C@H](Cc5ccc(O)cc5)NC1=O)C(=O)N1CCC[C@H]1C(=O)N[C@@H](CCCCN)C(=O)N[C@@H]([C@@H](C)CC)C(=O)N[C@@H](CC(C)C)C(=O)N[C@@H](CCCCN)C(=O)N[C@@H](CCCCN)C(=O)N4)NC(=O)[C@H](C)NC(=O)CNC(=O)[C@@H]1CCCN1C3=O)C(=O)N[C@@H](CCCNC(=N)N)C(=O)NCC(=O)N[C@@H](CC(N)=O)C(=O)NCC(=O)N[C@@H](Cc1ccc(O)cc1)C(=O)N2 [MTAbl02] (cyclo(AAPFAGCPKILKKCRRDSDCPGACICRGNGYCGEAIY); disulfide 7-24, 14-26, 20-32) | 90% |  |
| CC[C@H](C)[C@@H]1NC(=O)[C@H](C)NC(=O)[C@H](CCC(=O)O)NC(=O)CNC(=O)[C@@H]2CSSC[C@@H]3NC(=O)[C@H](CC(=O)O)NC(=O)[C@H](CO)NC(=O)[C@H](CC(=O)O)NC(=O)[C@H](CCCNC(=N)N)NC(=O)[C@H](CCCNC(=N)N)NC(=O)[C@@H]4CSSC[C@H](NC(=O)[C@H]([C@@H](C)CC)NC(=O)[C@H](CSSC[C@H](NC(=O)[C@H](C)NC(=O)[C@H](Cc5ccccc5)NC(=O)[C@@H]5CCCN5C(=O)[C@H](C)NC(=O)[C@H](C)NC(=O)[C@H](Cc5ccc(O)cc5)NC1=O)C(=O)N1CCC[C@H]1C(=O)N[C@@H](CCCCN)C(=O)N[C@@H]([C@@H](C)CC)C(=O)N[C@@H](CC(C)C)C(=O)N[C@@H](CCCCN)C(=O)N[C@@H](CCCCN)C(=O)N4)NC(=O)[C@H](C)NC(=O)CNC(=O)[C@@H]1CCCN1C3=O)C(=O)N[C@@H](CCCNC(=N)N)C(=O)NCC(=O)N[C@@H](CC(N)=O)C(=O)NCC(=O)N[C@@H](Cc1ccc(O)cc1)C(=O)N2 [MTAbl01] (cyclo(AAPFACPKILKKCRRDSDCPGACICRGNGYCGEAIY); disulfide 6-23, 13-25, 19-31) | 75% |  |
| EAIYAAPFAKKK [abltide, reference compound] |  | time to complete degradation in human serum ([3]; 30 μM peptide, RP-HPLC): ≤ 1 h |
| CC[C@H](C)[C@@H]1NC(=O)[C@H](C)NC(=O)[C@H](CCC(=O)O)NC(=O)CNC(=O)[C@@H]2CSSC[C@@H]3NC(=O)[C@H](CC(=O)O)NC(=O)[C@H](CO)NC(=O)[C@H](CC(=O)O)NC(=O)[C@H](CCCNC(=N)N)NC(=O)[C@H](CCCNC(=N)N)NC(=O)[C@@H]4CSSC[C@H](NC(=O)[C@H]([C@@H](C)CC)NC(=O)[C@H](CSSC[C@H](NC(=O)[C@H](CCCNC(=N)N)NC(=O)[C@H](C)NC(=O)[C@H](Cc5ccccc5)NC(=O)[C@@H]5CCCN5C(=O)[C@H](C)NC(=O)[C@H](C)NC(=O)[C@H](Cc5ccc(OP(=O)(O)O)cc5)NC1=O)C(=O)N1CCC[C@H]1C(=O)N[C@@H](CCCCN)C(=O)N[C@@H]([C@@H](C)CC)C(=O)N[C@@H](CC(C)C)C(=O)N[C@@H](CCCCN)C(=O)N[C@@H](CCCCN)C(=O)N4)NC(=O)[C@H](C)NC(=O)CNC(=O)[C@@H]1CCCN1C3=O)C(=O)N[C@@H](CCCNC(=N)N)C(=O)NCC(=O)N[C@@H](CC(N)=O)C(=O)NCC(=O)N[C@@H](Cc1ccc(O)cc1)C(=O)N2 [MTAbl12] (cyclo(AAPFARCPKILKKCRRDSDCPGACICRGNGYCGEAI[pY]); disulfide 7-24, 14-26, 20-32) |  | stability in human serum (in words; comparison to MCoTI-II at 24 h) ([3]; 24 h, one-way ANOVA, three replicates): lower stability |
